Assays:
[1] = system: Pseudomonas aeruginosa & E. coli mix; experiment: Synergy in the planktonic phase, biocide challenge with resazurin regrowth readout; assay type: cell-based, Pseudomonas aeruginosa (DSM: 50071) and E. coli (DSM: 1576); conditions: P. aeruginosa/E. coli, after 48 hours, phosphate buffer pH 7.3, used alone
Method: Pseudomonas aeruginosa (DSM: 50071) and E. coli (DSM: 1576) cultures were separately prepared from glycerol stocks; first they were streak plated and validated with a microscope. Single colonies were picked and shake flasks were inoculated and left overnight at 37° C. (TSB medium) to produce the initial inoculum. The challenge block (a 96 wells plate) was prepared using phosphate buffer at pH 7.3, (0.0027M potassium chloride, 0.137 M sodium chloride). The Biocide challenging was done at 30° C. Inoculation took place at the start of the experiments and after 48 hours a re-inoculation was done. Challenging was monitored up to 7 days in total. In Table 1, the concentrations used for the synergy experiments are listed. Each experiment was done in triplicate. […] The recovery plates were subsequently read (checked for microbial growth) at 24 and 48 hours after addition of the culture. Plate reading took place twice for each time point, to look at potential changes. Reading took place utilizing separate 96 wells plates pre filled with fresh media. […] This was done in triplicate for each point (the triplicate is already present in the biocide block viz. each point is truly determined in triplicate). […] Ranking was done per average value of three data points determined per experiment. (Recorded in log regrowth). […]

[2] = system: Thermus thermophilus; experiment: as above; assay type: cell-based, Thermus thermophilus (DSM: 579)
Method: The inoculum prepared added between to 1*10^8 to 1*10^9 total cells/ml (in each well). At several timepoints 20 microliter aliquots of each treatment (well) were added to 96 well plates with TSB+Resazurin. These 96 well plates were filled with 'recovery' media (TSB 30 grams/liter). One of such plates was prepared for each column of the assay block. 180 μl recovery media was added to each well of a 96 well plate, except for column 1 of the recovery plate. This column was filled with 180 μl of one column of the assay block. The last three columns on the recovery plate were not pipetted. These columns represented the no template control for verifying proper plate set up and data reliability. […] The recovery plates were subsequently read (checked for microbial growth) at 24 and 48 hours after addition of the culture. Plate reading took place twice for each time point, to look at potential changes. Reading took place utilizing separate 96 wells plates pre filled with fresh media. […] This was done in triplicate for each point (the triplicate is already present in the biocide block viz. each point is truly determined in triplicate). […] Ranking was done per average value of three data points determined per experiment. (Recorded in log regrowth). […]

[3] = system: Pseudomonas aeruginosa biofilm; experiment: Biofilm dissipation synergy on MBEC plate pegs; assay type: cell-based; conditions: P. aeruginosa biofilm, 24 hour contact time, 5 day regrowth; pass = total eradication of the biofilm
Method: One measure of synergism is the industrially accepted method described by Kull, […]. and Mayer, R. L., in Applied Microbiology 9:538-541 (1961), using the ratio determined by the formula: Qa/QA+Qb/QB=Synergy Index (“SI”) […] A Pseudomonas aeruginosa culture was prepared from glycerol stocks. First, the culture was streak plated. Single colonies were selected and shake flasks were inoculated and left overnight at 37° C. (TSB medium). The culture was diluted in phosphate buffer pH 7.3 1:1000000 prior to set up the biofilm plate Biofilm was developed overnight on P&G MBEC plates. The 96 well plates were covered with the lid holding the pegs partially submerged in the growth media. Biofilm was developed on the pegs leading to a total cell amount of 7*10^10 cells per peg. The top plates (with the pegs) were then subsequently washed and then placed into a 96 well challenge plate with the biocidal components in the given amounts. […] The contact time of the biofilms with the microbicidal mix was 24 hours. After the challenging, the biofilms were gently washed, sonicated from the pegs into recovery media (TSB 30 g/l, with resazurin, 0.01%), from these wells directly after sonication 10× dilution series were made on separate plates. These were left to recover for 3 to 5 days at 30° C. […] It could then be back-calculated how many cells remained after challenging of the biofilm with biocides. […]

SMILES: O=CC=O [Glyoxal, glyoxal]
- Glyoxal standalone 48 h pass [1]: ≥2000 ppm
- Glyoxal standalone 48 h pass ([2]; T. thermophilus, planktonic, after 48 hours, 60° C., standard ocean matrix salinity 2%, used alone): 40 ppm
- Sensitivity of Thermus thermophilus vs. Pseudomonas aeruginosa and E. coli ([2]; comparison in words, footnote of Table 2): more sensitive
- Glyoxal (standalone pass) [3]: 1280 ppm

From patent publication US20200214296A1, “MICROBICIDAL COMPOSITION” (DDP Specialty Electronic Materials US, Inc., priority 2017, published 2020)
